How the values were obtained:
D. yakuba = test: Airborne toxicity petri dish assay, adult flies (FIG. 1A); type: in vivo; details: 10% vol
Text: (§1) In particular, adult flies 2 were exposed to compositions 4 comprising one or more of a selection of VOCs according to the invention or a comparative example, in a petri dish 6. The compositions 4 were loaded onto the lid 6a of the petri dish 6 and the flies were placed into the base 6b of the dish, which was then covered by a sheet of plastic mesh netting 8 to avoid direct contact of the flies 2 with the compositions 4, before replacing the lid 6a. The onset of paralysis/loss of locomotion control, ultimately resulting in death of the flies 2, was monitored over a period of 1 hour or until all flies 2 were dead, determined when fly wings were vertical (similar to the protocol described in Legal et al. 1992 and 1994).
(§2) Adult flies of Drosophila species were exposed to a 10% vol solution of (E)-2-hexenal and 10% vol solution of methyl benzoate, in an experimental set up as explained in relation to FIG. 1A. For each VOC, species of the suzukii complex (D. suzukii, D. biarmipes), melanogaster complex (D. melanogaster, D. simulans, D. sechellia), and erecta+yakuba complex (D. erecta, D. yakuba, D. santomea) of the melanogaster species group were compared. 5-10 mixed female and male adults were used per trial. FIGS. 4A and B show the results of these experiments, respectively for (E)-2-hexenal (FIG. 4A) and methyl benzoate (FIG. 4B). The data shown represents the average±SEM of the proportion of dead flies as a function of time, over 3 to 6 assays per condition.

D. erecta = test: as above; type: in vivo; details: 10% vol
Text: as §1, §2

D. biarmipes = test: as above; type: in vivo; details: 10% vol
Text: as §1, §2

D. simulans = test: as above; type: in vivo; details: 10% vol
Text: as §1, §2

D. sechellia = test: as above; type: in vivo; details: 10% vol
Text: as §1, §2

[1] = test system: adult flies of D. suzukii; test: Contact toxicity, adult flies sprayed in a bugdorm; type: in vivo, Drosophila suzukii; details: for Proportion of dead flies (%): sprayed; for concentration inducing mortality by contact (as low as): sprayed adult D. suzukii
Method: Contact toxicity of E-2-hexenal and methyl benzoate volatiles was tested at different concentrations and in combination with thickeners in different concentration that make E-2-hexenal and methyl benzoate stick to the flies. […] Flies (10-15 mixed males/females) were placed into a bugdorm and sprayed from a distance of 10 cm. Mortality was evaluated after 24 hrs, except for the condition indicated with a star in Table 3, where an exposure time of 50 minutes was used. Thickeners were diluted in aqueous emulsions of deionised water containing 1% vol. Tween 20.

D. suzukii = test: Infestation of pre-odour-treated blueberries, emergence of adult flies; type: in vivo, Drosophila suzukii; details: 48 hours with adult flies, counted after 14 days
Method: Adult mixed female and male flies 20 (in the experiments below, D. suzukii flies) are placed in a cylindrical cage 60a with mesh roofing 80 for ventilation. Fruits 40 (in the experiments below 8 blueberries were used) are placed into a petri dish bottom 60b at the bottom of the cage 60a.
The blueberries were treated with (E)-2-hexenal and then exposed to flies. The impact of 1% vol, 5% vol and 10% vol aqueous emulsions of (E)-2-hexenal (obtained by dissolving the VOC in deionized water (DI) containing 1% (v/v) Tween 20 hydrophilic emulsifier) on egg-laying and the survival and development of larvae in pre-treated blueberries were compared to water-treated controls. In particular, the number of flies emerging after 14 days at ambient temperature was counted, following 48 hours of incubation of the treated blueberries with adult flies. The results of this analysis are shown on FIG. 6B. […] Significance was assessed by one-way ANOVA followed by Bonferroni correction at p≤0.05 and post-hoc two-sample t-test.
Eight ripe blueberries were dipped into 10 mL of a 1%, 5% or 10% aqueous emulsion of (E)-2-hexenal or deionised water as a control and left to air dry. They were then placed in a Petri dish at the bottom of a cylindrical plastic fly cage (∅=5.5 cm, h=7.5 cm), together with 20 mixed (10 females, 10 males) adult D. suzukii flies. The flies were exposed to the odour-treated blueberries during 48 hours at ambient room temperature conditions, after which they were removed and discarded. The blueberries were then transferred into an empty fly vial with cotton lids, and after 14 days at ambient room temperature conditions, the emergence of adult D. suzukii was examined by counting the number of flies. The assay was repeated 5 times.

adult D. suzukii flies = test: Petri dish assay, dose-range 0.3 to 10% vol in paraffin oil, 24 h exposure (FIG. 3E); type: in vivo, Drosophila suzukii; details: paraffin oil, 24 h exposure (Example 2)
Text: Data are represented as mean proportion of dead flies, with counts separated between male (as indicated by ‘M’) and female (as indicated by ‘F’) flies. […] Data points marked NaN were not tested at the indicated concentration. The MEC column summarises the minimal effective concentration to induce 100% morbidity/mortality to adult D. suzukii flies.

[2] = test system: honeybees (Apis mellifera); test: Airborne toxicity on honeybees in the petri dish assay; type: in vivo; details: applied concentration 4%, paraffin oil, 24 hours
[3] = test system: honeybees (Apis mellifera); test: as above; type: in vivo; details: adult bees exposed for one hour; for toxicity to honey bees: 10% vol
Method: The toxicity of (E)-2-hexenal and methyl benzoate volatiles was tested at 100% (pure) and 10% vol. concentrations on honeybees (Apis mellifera) in the petri dish assay of FIG. 1A. Adult bees were exposed for one hour and the proportion of death across all trials (5 trials with each of the pure VOCs and 10 trials for each of the 10% vol VOC assays) was calculated. The results of these experiments are shown on FIG. 8.
Honeybee foragers were obtained from a large bee keeping company (Agroquímica Ollé, http://agroquimicaolle.com). Bees were held in an incubator at 22 degrees for a few days and provided with ad libitum sugar water.

[4] = 0.1% compound + 1% Arabic Gom, 24 hrs
[5] = 0.1% compound + 1% hydroxyethylcellulose, 24 hrs
[6] = 0.1% compound, mortality after 24 hrs
[7] = 1% compound + 1% Arabic Gom, 24 hrs
[8] = 1% compound + 1% hydroxyethylcellulose, 24 hrs
[9] = 5% compound, mortality after 24 hrs
[10] = *1% compound, exposure time of 50 minutes

| Structure (SMILES) | T50 (D. yakuba) [min] | T50 (D. erecta) [min] | T50 (D. biarmipes) [min] | T50 (D. simulans) [min] | T50 (D. sechellia) [min] | Proportion of dead flies (%) [1, 4] [%] | Proportion of dead flies (%) [1, 5] [%] | Proportion of dead flies (%) [1, 6] [%] | Proportion of dead flies (%) [1, 7] [%] | Proportion of dead flies (%) [1, 8] [%] | Proportion of dead flies (%) [1, 9] [%] | Proportion of dead flies (%) [1, 10] [%] | concentration inducing mortality by contact (as low as) [1] [%] | fly emergence from pre-treated blueberries versus untreated (D. suzukii; 1% aqueous emulsion) | fly emergence from pre-treated blueberries versus untreated (D. suzukii; 5% aqueous emulsion) | fly emergence from pre-treated blueberries versus untreated (D. suzukii; 10% aqueous emulsion) | Minimal concentration (%) to induce 100% morbidity/mortality in D. suzukii adults (adult D. suzukii flies) [%] | Percentage of dead honey bee adults (%) [2] [%] | toxicity to honey bees [3] | toxicity to honey bees (rate) ([3]; 100% (pure) compound) |
| --- | --- | --- | --- | --- | --- | --- | --- | --- | --- | --- | --- | --- | --- | --- | --- | --- | --- | --- | --- | --- |
| CCC/C=C/C=O [(E)-2-hexenal] | 8.7 | 5.3 | 15.4 | 9 | 22.7 | 80 | 80 | 31 | 10 | 50 | 100 | 50 | 0.1 | not significantly different from untreated berries | significant reduction of fly emergence | significant reduction of fly emergence | 4 | 0 | low levels of toxicity | significantly faster rate than pure methyl benzoate |
| COC(=O)c1ccccc1 [methyl benzoate, Methyl benzoate] | 11 | 13.8 | 9.6 | 9.4 | 34 | 30 | 10 | 33 | 30 | 70 | 100 | 30 | 0.1 |  |  |  |  |  | low levels of toxicity |  |

Reference: US11779015B2, “Pesticide compositions” (FUNDACIÓ CENTRE DE REGULACIÓ GENÒMICA, priority 2017, dated 2023)
